In patent publication US20090170838A1, “Bicycloheteroaryl compounds as P2X7 modulators and uses thereof” (Renovis, Inc., priority 2005, published 2009):

Assays:
[1] = target: T1, P2X7 receptor (Homo sapiens, UniProt Q99572); experiment: IL-1β release assay (BzATP-stimulated, LPS/IFN-γ differentiated THP-1 cells, ELISA); type: cell-based; details: at 0.1 μM (asterisk symbols)
T1 construct: host or cells: THP-1 cells differentiated with LPS and IFN-γ
T1 sequence (Q99572 1-595): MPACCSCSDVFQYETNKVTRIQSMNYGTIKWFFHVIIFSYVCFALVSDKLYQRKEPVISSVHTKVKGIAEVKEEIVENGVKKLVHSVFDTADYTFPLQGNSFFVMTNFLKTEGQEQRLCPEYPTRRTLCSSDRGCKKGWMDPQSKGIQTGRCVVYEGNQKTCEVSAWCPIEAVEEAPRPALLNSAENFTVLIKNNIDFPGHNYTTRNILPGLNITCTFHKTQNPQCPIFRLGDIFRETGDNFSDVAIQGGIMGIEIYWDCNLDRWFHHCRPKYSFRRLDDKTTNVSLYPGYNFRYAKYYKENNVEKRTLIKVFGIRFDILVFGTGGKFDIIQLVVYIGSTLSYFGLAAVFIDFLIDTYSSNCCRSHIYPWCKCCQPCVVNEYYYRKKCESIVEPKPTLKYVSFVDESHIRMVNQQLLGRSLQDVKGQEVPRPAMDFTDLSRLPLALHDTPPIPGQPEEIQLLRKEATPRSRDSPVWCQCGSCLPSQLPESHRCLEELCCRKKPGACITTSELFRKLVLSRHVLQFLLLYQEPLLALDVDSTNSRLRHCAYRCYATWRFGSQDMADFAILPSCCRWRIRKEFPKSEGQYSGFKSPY
In short: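 THP-1 cells were differentiated 16 h with LPS and IFN-γ (100 ng/mL each), then primed 2 h with fresh LPS. Compound pretreatment lasted 30 min, followed by 250 uM BzATP for 45 min. Supernatant IL-1β was measured by ELISA, and percent inhibition was calculated from background-adjusted levels.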

[2] = target: T1, P2X7 receptor; experiment: Pore formation (Yo-Pro 1 uptake, BzATP-stimulated differentiated THP-1 cells); type: cell-based
Method: THP-1 cells (ATCC Cat # 285-IF-100) are plated in 96 well plates at a concentration of 200,000 cells per well and allowed to differentiate in RPMI-1640 media (ATCC Cat # 30-2001) containing 10% FBS, 100 IU/mL penicillin, 100 ug/mL streptomycin, 100 ng/mL LPS and 100 ng/mL IFN-γ for 16 hours. Following differentiation, the cells are pretreated with the compound of interest at the appropriate concentration for 30 minutes in RPMI-1640 media containing 100 IU/mL penicillin, 100 ug/mL streptomycin. The pretreatment media is then replaced with assay buffer (20 mM HEPES, 10 mM D-glucose, 118 mM NMDG, 5 mM KCl, 0.4 mM CaCl2) containing 5 uM Yo-Pro 1 (Molecular Probes Cat # Y3603) and the compound of interest at the appropriate concentration and the cells are incubated for an additional 10 minutes. 2′,3′-O-(4-benzoylbenzoyl)-adenosine 5′-triphosphate (Sigma Aldrich Cat# B6396) is then added to a final concentration of 40 uM and fluoroscence readings measured at 491/509 excitation/emission every minute for 50 minutes using a Tecan Safire plate reader. During this time temperature is maintained at of 37° C. Background adjusted fluorescence levels between drug treated and non-treated cells are used to calculate the percent inhibition.

inhibition at 0.1 µM [1] [%] | inhibition at 0.1 µM ([2]; at 0.1 μM (asterisk symbols)) [%] | inhibition at 0.3 µM ([2]; at 0.3 μM (plus symbols)) [%] | SMILES
≥ 75 | ≥ 75 |  | O=C(CC12CC3CC(CC(C3)C1)C2)Nc1cccc2c(=O)n(CCN3CCOCC3)ccc12 [Compound 780]
≥ 75 |  | ≥ 75 | O=C(CC12CC3CC(CC(C3)C1)C2)Nc1cccc2c(=O)[nH]ccc12 [Compound 804]
